Measured values from paper PMC9500544, “Anti-Trichomonas gallinae activity of essential oils and main compounds from Lamiaceae and Asteraceae plants” (Frontiers in Veterinary Science, 2022).
In brackets after ≈: the same amount, converted by molar mass. Where two headings read alike, the source gives them in different places.

Experiments:
[1] = system: Trichomonas gallinae trophozoites; assay: Anti-trichomonal (AT) activity in vitro, MTT reduction assay on trophozoites; type: cell-based; details: for IC50: Trichomonas gallinae, read-out: T. gallinae (IC50), concentration needed to produce 50% trophozoite mortality; for AT activity against T. gallinae (in words): no concentration stated
Description: The AT activity assay was performed using round bottom microwell plates in quadruplicate. Each well had 150 μl of T. gallinae trophozoites in Trypticase-Yeast Extract-Maltose medium (TYM) with 10% fetal calf serum (Sigma, Madrid, Spain) at 500.000 trophozoites/ml ([29]). EOs and pure compounds were solved in DMSO (Sigma, Madrid, Spain) (<1% final concentration). […] Trophozoite viability was analyzed using the modified MTT colorimetric assay method as previously described in literature ([29]). Briefly, after incubating the plate for 24 h at 37°C with the EOs and compounds to be tested, the plates were centrifuged at 750 x g, the medium was eliminated and 100 μl of a solution of MTT (Sigma, Madrid, Spain) (1.25 μg/ml) and PMS (Sigma, Madrid, Spain) (0.1 μg/ml) in PBS (Sigma, Madrid, Spain) was added to each well. The plate was incubated for 45 min in dark conditions to allow the reduction of MTT to formazan salts. Prior to reading, 100 μl of DMSO was added to each well to dissolve the formazan crystals. The plate was read in a spectrophotometer using a wavelength of 570 nm.
The percentage of AT activity was calculated as growth inhibition using the following formula:
% AT = 100-[(Ap-Ab)÷(Ac-Ab)]×100
Where Ap is the absorbance of the tested product, Ab the absorbance of the blank and Ac the absorbance of the control wells (culture without treatment).
Pure compounds were assayed using the same method described above, although the concentrations tested were 100, 75, 50, 25, 10, and 1 μg/ml. Metronidazole (Acros Organics, Madrid Spain) was used as a reference drug for antitrichomonal activity.
IC50 (μg/ml) reflects the dose needed to produce 50% mortality of T. gallinae trophozoites.
(§1) IC50 anti-trichomonal activity and CC50 cytotoxic activity were determined from the dose-response experiment, employing a linear regression analysis (% cell viability on log dose).

in vitro = type: cell-based
Description: (§2) African green monkey kidney cells (Vero cells) were grown in Dulbecco's modified Eagle's minimal essential medium (DMEM, Avantor, Llinars del Vallès, Barcelona) supplemented with 10% fetal calf serum (Sigma, Madrid, Spain) and 1% penicillin/streptomycin (Fisher Scientific, Madrid, Spain) at 37°C under a humidified atmosphere of 5% CO2/95% air.
(§3) Cells seeded in 96-well flat-bottom microplates with 100 μL medium per well (initial densities 10^4 cells per well) were exposed for 48 h to serial dilutions of the test compounds in DMSO (<1% final concentration). Cell viability was analyzed by the MTT colorimetric assay method, and the purple-colored formazan precipitate was dissolved with 100 μL of DMSO ([30]).
as §1

Vero cells = assay: in vitro; type: cell-based; details: pure compounds; for Cytotoxic activity on Vero cells (in words): up to 100 μg/ml, 48 h; for Vero cells (CC50), concentration needed to produce 50% Vero cell mortality: 48 h exposure, interval in parentheses
Description: as §2, §3, §1

[2] = cited from earlier work
[3] = pure compounds, 24 h incubation, interval in parentheses
[4] = SI = CC50 (Vero cells)/IC50 (T. gallinae)
[5] = pure compounds, 48 h exposure, interval in parentheses, read-out: Vero cells (CC50), concentration needed to produce 50% Vero cell mortality

Molecule	IC50 [1, 3]	CC50 at 48 h (in vitro; African green monkey)	CC50 (in vitro; [5])	further results
CC1=CCC2CC1C2(C)C (stereo not drawn) [α-pinene]	44.2 µg/mL (≈ 324 µM)	88.9 µg/mL (≈ 653 µM)	–	Cytotoxic activity on Vero cells (in words) (Vero cells): slightly toxic
CC12CCC(CC1=O)C2(C)C (stereo not shown) [Camphor]	> 100 µg/mL	> 100 µg/mL	–	–
Cc1ncc([N+](=O)[O-])n1CCO [Metronidazole, reference compound]	1 µg/mL (≈ 5.84 µM)	> 100 µg/mL	–	–
CC12CCC(CC1)C(C)(C)O2 [1,8 cineole]	> 100 µg/mL	> 100 µg/mL	–	–
CC1(C)C(=O)[C@@]2(C)CCC1C2 [D-fenchone]	–	–	–	T. gallinae (IC50), concentration needed to produce 50% trophozoite mortality [1, 3]: 61.9 (54.3–70.6) μg/ml; Vero cells (CC50), concentration needed to produce 50% Vero cell mortality (Vero cells): >100 µg/mL
Cc1ccc(C(C)C)cc1 [p-cymene]	59.7 µg/mL (≈ 445 µM)	–	> 100 µg/mL	SI, Selectivity index [1, 4]: > 1.7
C=C1CCC2CC1C2(C)C (stereo not drawn) [β-pinene]	29.6 µg/mL (≈ 217 µM)	–	88.2 µg/mL (≈ 647 µM)	–
CC1=CCC(C(C)C)=CC1 [γ-terpinene]	43.8 µg/mL (≈ 321 µM)	–	–	SI, Selectivity index [1, 4]: > 2.3; CC50 at 48 h (in vitro; [5]): > 100 µg/mL
CC1(C)C2CCC1(C)C(O)C2 (stereo not shown) [Borneol]	> 100 µg/mL	> 100 µg/mL	–	–
C=CC(C)(O)CCC=C(C)C (stereo not shown) [Linalool]	> 100 µg/mL	–	> 100 µg/mL	AT activity against T. gallinae (in words) ([1]; pure compounds): not an active AT compound
C=C1CC/C=C(\C)CC[C@@H]2[C@@H]1CC2(C)C [β-caryophyllene]	86.1 µg/mL (≈ 421 µM)	–	60.8 µg/mL (≈ 298 µM)	AT activity against T. gallinae (in words) ([1]; pure compounds): slight activity; Cytotoxic activity on Vero cells (in words) (Vero cells): slightly toxic
CC1=CC[C@@H](C(C)(C)O)CC1 [α-terpineol]	> 100 µg/mL	–	> 100 µg/mL	–
C=C1C2CCC(C2)C1(C)C (stereo not shown) [Camphene]	24 µg/mL (≈ 176 µM)	–	74.8 µg/mL (≈ 549 µM)	–
CC1=CCC(O)(C(C)C)CC1 (stereo not shown) [4-terpinenol]	41.5 µg/mL (≈ 269 µM)	–	> 100 µg/mL	SI, Selectivity index [1, 4]: > 2.4
C=C1CC[C@H]2O[C@]2(C)CC[C@@H]2[C@@H]1CC2(C)C [Caryophyllene oxide]	–	–	–	AT activity against T. gallinae (in words) ([1]; pure compounds): slight activity; T. gallinae (IC50), concentration needed to produce 50% trophozoite mortality [1, 3]: ≈100 μg/ml; Vero cells (CC50), concentration needed to produce 50% Vero cell mortality (Vero cells): >100 µg/mL
Cc1ccc(C(C)C)c(O)c1 [Thymol]	38.4 µg/mL (≈ 256 µM)	> 100 µg/mL	–	–
α and β thujone	–	–	–	T. gallinae (IC50), concentration needed to produce 50% trophozoite mortality [1, 3]: 17.3 (11.3–26.3) μg/ml; Cytotoxic activity on Vero cells (in words) (Vero cells): did not show cytotoxic effect; Vero cells (CC50), concentration needed to produce 50% Vero cell mortality (Vero cells): >100 µg/mL; Neurotoxicity (in words) [2]: potent neurotoxic substances
C=CC(C)(CCC=C(C)C)OC(C)=O (stereo not shown) [Linalyl acetate]	–	–	–	SI, Selectivity index [1]: > 3.1; IC50 ([1]; 24 h): 32.2 µg/mL; CC50 (in vitro): > 100 µg/mL
Cc1ccc(C(C)C)cc1O [Carvacrol]	> 100 µg/mL	–	> 100 µg/mL	–
